Experimental data from US12291499B2, “Deuterated tryptamine derivatives and methods of use” (priority 2020, dated 2025).

Assays:
[1] = test system: rat liver microsomes (RLM); assay: Metabolic stability in rat liver microsomes (RLM); settings: for RLM, %, class symbol (metabolized or not) / RLM, % (half-life as % vs. the related nondeuterated compound): RLM assay; for RLM, %, class symbol (metabolized or not): last time point 120 min; for RLM, % (half-life as % vs. the related nondeuterated compound): values in square brackets are within 10% (assay's accuracy), no deuteration effect
hrMAO-A = target: T1, hrMAO-A (Homo sapiens, UniProt P21397); assay: Metabolic stability in the presence of hrMAO-A; type: in vitro ADME; settings: for MAO, % (half-life as % vs. the related nondeuterated compound) / MAO, %, class symbol (metabolized or not): MAO-A assay; for MAO, % (half-life as % vs. the related nondeuterated compound): values in square brackets are within 10% (assay's accuracy), no deuteration effect; for MAO, %, class symbol (metabolized or not): last time point 120 min
T1 construct: purchased XenoTech Lot #8213001
T1 sequence (P21397 1-527): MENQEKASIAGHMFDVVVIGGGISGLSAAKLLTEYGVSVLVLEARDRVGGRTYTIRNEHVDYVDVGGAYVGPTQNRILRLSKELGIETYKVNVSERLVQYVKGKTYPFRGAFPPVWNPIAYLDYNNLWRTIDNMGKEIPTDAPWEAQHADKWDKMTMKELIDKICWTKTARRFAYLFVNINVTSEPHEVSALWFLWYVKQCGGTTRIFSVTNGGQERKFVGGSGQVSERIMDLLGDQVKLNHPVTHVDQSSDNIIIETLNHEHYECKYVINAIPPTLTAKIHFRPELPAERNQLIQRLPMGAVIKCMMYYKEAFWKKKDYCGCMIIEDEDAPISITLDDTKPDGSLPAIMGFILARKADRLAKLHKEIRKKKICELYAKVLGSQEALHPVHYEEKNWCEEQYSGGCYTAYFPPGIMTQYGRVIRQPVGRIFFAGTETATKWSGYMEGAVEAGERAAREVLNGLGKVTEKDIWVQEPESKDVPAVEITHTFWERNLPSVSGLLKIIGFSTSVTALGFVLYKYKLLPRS
Procedure: The reaction mixture was prepared as described below. The co-dosed TAs were added into the reaction mixture at a final concentration of 1 microM each. The positive control, kynuramine (25 microM), was run simultaneously with the TAs in a separate reaction. The reaction mixture (without TAs or kynuramine) was equilibrated in a shaking water bath at 37° C. for 5 minutes. The reaction was initiated by the addition of the TAs or kynuramine, and the mixture was incubated in a shaking water bath at 37° C. Aliquots (100 microL) of the TA reaction mixture were withdrawn at 0, 5, 10, 20, 30, 60, and 120 minutes. Aliquots (100 microL) of the positive control reaction mixture were withdrawn at 0 and 30 minutes. TA and kynuramine samples were immediately combined with 100 microL of ice-cold 100% MeCN containing 0.1% formic acid and IS to terminate the reaction. The samples were then mixed and centrifuged to precipitate proteins. All TA samples were assayed by LC-HRAMS. The PARR (analyte to IS) at each time point was compared to the PARR at time 0 to determine the percent remaining at each time point. Reaction composition: hrMAO 0.02 mg/mL; Potassium Phosphate, pH 7.4 100 mM; Magnesium Chloride 5 mM; Test Articles (each) 1 microM.

[2] = PK studies in rats (cassette dosing, oral gavage or catheter; brain and plasma levels); type: in vivo, Wistar female rats; settings: % change vs. non-deuterated material; for Deuterium Kinetic Isotope Effect (% change) AUC / Deuterium Kinetic Isotope Effect (% change) T1/2: 5 mg/kg; for Deuterium Kinetic Isotope Effect (% change) BPR, 15 min: sacrificed at 15 min; for Deuterium Kinetic Isotope Effect (% change) BPR, 15 min / Deuterium Kinetic Isotope Effect (% change) BPR, 30 min: parent drug in brain and plasma; for Deuterium Kinetic Isotope Effect (% change) BPR, 30 min: sacrificed at 30 min
Procedure: The key PK parameters (presented as a % change vs. non-deuterated materials) are presented in Table 3 to include half-life (T1/2), area under the curve (AUC), bioavailability (F) and blood-to-plasma ration (BPR). Pharmacokinetics of the deuterated tryptamines was studied in rats. In a typical experiment, run as a cassette dosing, two groups of 5 Wistar female rats (200-250 g) with surgically inserted jugular vein catheter (Charles River, Andover, MA) were fasted for 12 h and then administered 5 mg/kg of the deuterated and 5 mg/kg of the related non-deuterated analog, by oral gavage or via a catheter for each group. At time points 0, 15, 30, 60 min, and 2, 4, 8, and 24 h, the resulting plasma was analyzed for the parent molecule using LC/MS spectroscopy. Two separate groups of 5 animals were used for determining blood-to-plasma ratio (BPR). Each group was sacrificed at time points 15 and 30 min, respectively, and the concentration of the parent drug was determined in the brain and plasma by LC/MS spectroscopy.

[3] = Table 5, d8 and d10 analogs, hrMAO-A

C=CCN(CC=C)CCc1c[nH]c2ccccc12
RLM, %, class symbol (metabolized or not) [1]: R

C=CCNCCc1c[nH]c2ccccc12
RLM, %, class symbol (metabolized or not) [1]: R

[2H]C([2H])(Cc1c[nH]c2ccccc12)NC([2H])([2H])C([2H])([2H])[2H]
MAO, % (half-life as % vs. the related nondeuterated compound) (hrMAO-A): 170%

[2H]C([2H])([2H])C([2H])([2H])NC([2H])([2H])C([2H])([2H])c1c[nH]c2cccc(O)c12
RLM, % (half-life as % vs. the related nondeuterated compound) [1]: [93] %

CCN(CC)CCc1c[nH]c2ccccc12
RLM, %, class symbol (metabolized or not) [1]: R

[2H]C([2H])(c1c[nH]c2ccc(OC)cc12)C([2H])([2H])N(CC)CC
RLM, % (half-life as % vs. the related nondeuterated compound) [1]: [95] %

CCN(CC)CCc1c[nH]c2ccc(OC)cc12
RLM, %, class symbol (metabolized or not) [1]: R

CCN(CC)CCc1c[nH]c2ccc(O)cc12
RLM, %, class symbol (metabolized or not) [1]: R

CCN(CC)CCc1c[nH]c2cccc(OC)c12
RLM, %, class symbol (metabolized or not) [1]: R

[2H]c1ccc2[nH]c([2H])c(CCN([2H])CC)c2c1O
RLM, %, class symbol (metabolized or not) [1]: R

[2H]C([2H])(NCC)C([2H])([2H])c1c[nH]c2ccccc12
MAO, % (half-life as % vs. the related nondeuterated compound) (hrMAO-A): 140%

[2H]C([2H])(NCC)C([2H])([2H])c1c[nH]c2cccc(O)c12
RLM, % (half-life as % vs. the related nondeuterated compound) [1]: [94] %

CCNCCc1c[nH]c2cccc(O)c12
RLM, %, class symbol (metabolized or not) [1]: R

[2H]C([2H])(c1c[nH]c2cccc(OC)c12)C([2H])([2H])N(C)C
RLM, % (half-life as % vs. the related nondeuterated compound) [1]: 190%

[2H]C([2H])(NC)C([2H])([2H])c1c[nH]c2cccc(O)c12
RLM, % (half-life as % vs. the related nondeuterated compound) [1]: 160%

CC(C)NCCc1c[nH]c2ccccc12
RLM, %, class symbol (metabolized or not) [1]: R

CC(C)NCCc1c[nH]c2cccc(O)c12
RLM, %, class symbol (metabolized or not) [1]: R

[2H]C([2H])(c1c[nH]c2cccc(O)c12)C([2H])([2H])N(C(C)C)C(C)C
RLM, % (half-life as % vs. the related nondeuterated compound) [1]: [97] %

CC(C)N(CCc1c[nH]c2cccc(O)c12)C(C)C
RLM, %, class symbol (metabolized or not) [1]: R

COc1ccc2[nH]cc(CCN(C)C)c2c1 [5-MeO-DMT, reference compound]
RLM, %, class symbol (metabolized or not) [1]: R
MAO, %, class symbol (metabolized or not) (hrMAO-A): R

[2H]C([2H])(Cc1c[nH]c2ccc(OC)cc12)N(C)C [5-MeO-DMT-α,α-d2]
Deuterium Kinetic Isotope Effect (% change) AUC [2]: 60 % change
Deuterium Kinetic Isotope Effect (% change) T1/2 [2]: 30 % change
Deuterium Kinetic Isotope Effect (% change) BPR, 15 min [2]: 120 % change
Deuterium Kinetic Isotope Effect (% change) BPR, 30 min [2]: 180 % change

[2H]C([2H])(Cc1c[nH]c2ccccc12)N(C)C [DMT-d2]
% Remaining of Initial 0 min ([1]; Table 2, RLM): 100%
% Remaining of Initial 60 min ([1]; Table 2, RLM, 60 min): 32.0%
Half-life (hrMAO-A; Table 3, hrMAO-A): > 2 h
% Remaining of Initial 0 min (hrMAO-A; Table 3, hrMAO-A): 100%
% Remaining of Initial 60 min (hrMAO-A; Table 3, hrMAO-A, 60 min): 76.0%

[2H]C([2H])(c1c[nH]c2ccccc12)C([2H])([2H])N(C)C [DMT-d4]
% Remaining of Initial 0 min ([1]; Table 2, RLM): 100%
Half-life (hrMAO-A; Table 3, hrMAO-A): > 2 h
% Remaining of Initial 0 min (hrMAO-A; Table 3, hrMAO-A): 100%

[2H]C([2H])([2H])N(C([2H])([2H])[2H])C([2H])([2H])C([2H])([2H])c1c[nH]c2ccccc12 [DMT-d10]
% Remaining of Initial 0 min ([1]; Table 2, RLM): 100%
% Remaining of Initial 0 min ([1]; Table 4, d8 and d10 analogs, RLM): 100%
% Remaining of Initial 10 min ([1]; Table 4, d8 and d10 analogs, RLM, 10 min): 56.0%
kinetic deuterium isotope effect / metabolic stability, in words ([1]; rat liver microsomes, vs. DMT): Further enhancement of metabolic stability
metabolic stability in the MAO-A enzymatic assay, in words (hrMAO-A; MAO-A enzymatic assay): superiority
Half-life (hrMAO-A; Table 3, hrMAO-A): > 2 h
% Remaining of Initial 0 min (hrMAO-A; Table 3, hrMAO-A): 100%
Half-life (hrMAO-A; [3]): > 2 h
% Remaining of Initial 0 min (hrMAO-A; [3]): 100.0%
% Remaining of Initial 5 min (hrMAO-A; Table 5, d8 and d10 analogs, hrMAO-A, 5 min): 99.0%

CN(C)CCc1c[nH]c2ccccc12 [DMT]
% Remaining of Initial 0 min ([1]; Table 2, RLM): 100%
% Remaining of Initial 20 min ([1]; Table 2, RLM, 20 min): 41.0%
% Remaining of Initial 0 min (hrMAO-A; Table 3, hrMAO-A): 100%

[2H]C([2H])(Cc1c[nH]c2cccc(O)c12)N(C)C [PI-α,α-d2]
Deuterium Kinetic Isotope Effect (% change) AUC [2]: 75 % change
Deuterium Kinetic Isotope Effect (% change) T1/2 [2]: 50 % change
Deuterium Kinetic Isotope Effect (% change) BPR, 15 min [2]: 100 % change
Deuterium Kinetic Isotope Effect (% change) BPR, 30 min [2]: 150 % change

CCNCCc1c[nH]c2ccccc12 [reference compound]
RLM, %, class symbol (metabolized or not) [1]: R
MAO, %, class symbol (metabolized or not) (hrMAO-A): R

CCN(C)CCc1c[nH]c2ccccc12 [reference compound]
RLM, %, class symbol (metabolized or not) [1]: R
MAO, %, class symbol (metabolized or not) (hrMAO-A): R

CCN(C)CCc1c[nH]c2ccc(OC)cc12 [reference compound]
RLM, %, class symbol (metabolized or not) [1]: R
MAO, %, class symbol (metabolized or not) (hrMAO-A): R

CCN(C)CCc1c[nH]c2ccc(O)cc12 [reference compound]
RLM, %, class symbol (metabolized or not) [1]: R
MAO, %, class symbol (metabolized or not) (hrMAO-A): R

CCN(C)CCc1c[nH]c2cccc(OC)c12 [reference compound]
RLM, %, class symbol (metabolized or not) [1]: R
MAO, %, class symbol (metabolized or not) (hrMAO-A): R

CN(C)CCc1c[nH]c2ccc(O)cc12 [reference compound]
RLM, %, class symbol (metabolized or not) [1]: R
MAO, %, class symbol (metabolized or not) (hrMAO-A): R

COc1cccc2[nH]cc(CCN(C)C)c12 [reference compound]
RLM, %, class symbol (metabolized or not) [1]: R
MAO, %, class symbol (metabolized or not) (hrMAO-A): R

CNCCc1c[nH]c2ccccc12 [reference compound]
RLM, %, class symbol (metabolized or not) [1]: R
MAO, %, class symbol (metabolized or not) (hrMAO-A): R

CNCCc1c[nH]c2cccc(O)c12 [reference compound]
RLM, %, class symbol (metabolized or not) [1]: R
MAO, %, class symbol (metabolized or not) (hrMAO-A): R
